Experiments:
human GST-AMPK α2β1γ1 = molecular target: T1, human GST-AMPK α2β1γ1 (Homo sapiens, UniProt P54646+Q9Y478); test: Radiolabel SAMS kinase assay, GST-AMPK from HEK293T/17 cells immobilised on glutathione-Sepharose; assay type: biochemical; settings: 1 µM compound
T1 construct: triply transfected with full-length AMPK α1 or α2 (NH2-terminal GST fusion, pDEST27 vector); full-length AMPK α1 or α2 (NH2-terminal GST fusion, pDEST27 vector), β1 or β2 (COOH-terminal FLAG fusion, pcDNA3.1 vector); FLAG (C); made in house; host or cells: HEK293T/17 cells, transient triple transfection
T1 sequence (P54646 whole entry, the tested form may be a part): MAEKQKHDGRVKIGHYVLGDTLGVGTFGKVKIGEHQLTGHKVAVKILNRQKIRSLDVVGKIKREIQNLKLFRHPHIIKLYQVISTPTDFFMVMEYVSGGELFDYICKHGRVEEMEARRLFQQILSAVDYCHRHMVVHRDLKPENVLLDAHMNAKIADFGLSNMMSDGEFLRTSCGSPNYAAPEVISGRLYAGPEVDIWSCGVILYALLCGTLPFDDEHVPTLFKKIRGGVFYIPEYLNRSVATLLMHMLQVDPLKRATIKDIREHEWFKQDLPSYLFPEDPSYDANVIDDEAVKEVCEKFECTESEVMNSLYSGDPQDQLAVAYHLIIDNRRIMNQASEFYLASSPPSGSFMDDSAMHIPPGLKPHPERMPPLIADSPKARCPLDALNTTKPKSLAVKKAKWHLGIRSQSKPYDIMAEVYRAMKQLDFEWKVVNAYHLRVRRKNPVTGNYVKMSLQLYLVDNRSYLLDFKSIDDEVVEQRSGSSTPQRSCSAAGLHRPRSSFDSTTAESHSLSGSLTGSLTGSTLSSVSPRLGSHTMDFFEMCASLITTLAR
T1 sequence (Q9Y478 whole entry, the tested form may be a part): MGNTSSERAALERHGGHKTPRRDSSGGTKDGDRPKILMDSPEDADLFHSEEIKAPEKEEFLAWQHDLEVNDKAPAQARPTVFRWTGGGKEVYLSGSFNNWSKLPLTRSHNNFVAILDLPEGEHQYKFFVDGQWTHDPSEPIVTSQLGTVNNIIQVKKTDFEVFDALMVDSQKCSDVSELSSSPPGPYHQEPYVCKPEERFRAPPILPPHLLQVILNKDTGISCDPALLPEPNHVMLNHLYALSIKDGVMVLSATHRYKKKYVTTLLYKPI
T1 sequence (P54619 whole entry partner, the tested form may be a part): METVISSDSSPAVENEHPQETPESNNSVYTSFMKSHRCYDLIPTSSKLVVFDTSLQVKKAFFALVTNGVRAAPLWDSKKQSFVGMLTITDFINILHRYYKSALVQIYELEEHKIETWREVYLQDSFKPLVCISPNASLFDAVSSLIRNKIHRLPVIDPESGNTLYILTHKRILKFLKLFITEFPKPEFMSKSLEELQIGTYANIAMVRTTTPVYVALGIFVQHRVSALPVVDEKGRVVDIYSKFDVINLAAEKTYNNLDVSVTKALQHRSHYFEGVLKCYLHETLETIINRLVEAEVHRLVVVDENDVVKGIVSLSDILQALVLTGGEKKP
Text: (§1) We generated a series of compounds to investigate whether modification of the SC4 2-hydroxybiphenyl LHS fragment affects isoform selectivity, some of which (MSG008-MSG011) are presented in Table 1. We also synthesised compound MSG012 (example I-3-54 [32]), which was reported to activate α2β2γ1 with ∼100-fold greater potency compared with α1β1γ1. MSG012 differs from SC4 by substitution of the 2-hydroxyphenyl LHS fragment with 3-cyclohexen-4-yl-1-carboxylic acid, and 2-methylbenzoic acid RHS fragment with 1-hydroxy-N,N-dimethylcyclohexan-4-yl-1-carboxamide. Our initial screen involved measuring the activity of recombinant human GST-AMPK complexes expressed in HEK293T/17 cells and immobilised on glutathione-Sepharose (Supplementary Figure S1). Enzyme activity was measured by radiolabelling the synthetic SAMS peptide substrate in the absence or presence of 1 µM compound. Consistent with our previous characterisation, SC4 activated α1β1γ1, α2β1γ1 and α2β2γ1 >2.3-fold, and weakly activated α1β2γ1 1.3-fold (Figure 1A). […] The γ isoform had little influence on AMPK activation by MSG011 as most γ2 and γ3 complexes were activated >2.2-fold at 1 µM, with α1β2γ2 being the only exception (1.6-fold activation). […] Accordingly, MSG010, MSG011 and MSG012 can be classified as pan AMPK activators.
(§2) Adherent HEK293T/17 cells at ∼50% confluency were triply transfected with full-length AMPK α1 or α2 (NH2-terminal GST fusion, pDEST27 vector), β1 or β2 (COOH-terminal FLAG fusion, pcDNA3.1 vector), and γ1, γ2 or γ3 (NH2-terminal HA fusion, pMT2 vector) in the presence of FuGENE HD transfection reagent (Promega) as per the manufacturers protocol. Cells were harvested 48 hours post-transfection by first gently washing in ice cold phosphate buffered saline (PBS; Sigma–Aldrich), then scraping in ice cold lysis buffer (50 mM TRIS pH 7.5, 150 mM NaCl, 10% (v/v) glycerol, 50 mM NaF, 5 mM sodium pyrophosphate, 1% (v/v) Triton X-100, cOmplete protease inhibitor cocktail). Lysates were clarified by centrifugation (16 000g, 3 min, 4°C), flash frozen in liquid N2 and stored at −80°C until analysis. For radioactive kinase assays, AMPK was immobilised on glutathione Sepharose 4B resin (GE Healthcare) by incubation with lysates for 1.5 h at 4°C. Following centrifugation (1000g, 3 min, 4°C), the resin was washed twice in purification buffer (50 mM HEPES pH 7.4, 150 mM NaCl, 10% (v/v) glycerol, 0.02% (v/v) Tween-20), once in 50 mM HEPES pH 7.4 with 0.02% (v/v) Tween-20, then resuspended to a 50% slurry with 50 mM HEPES pH 7.4 and 10 µl added to the activity assays. For in solution kinase assays, α1β1γ1 AMPK was eluted from glutathione-Sepharose by incubating with purification buffer supplemented with 40 mM reduced glutathione (Sigma–Aldrich).
(§3) AMPK activity was determined by phosphorylation of the SAMS peptide (Purar Chemicals, sequence: NH2-HMRSAMSGLHLVKRR-COOH) in a 25 µl reaction volume containing 100 µM SAMS peptide, 5 mM MgCl2, 200 µM ATP, [γ-^32P]-ATP (PerkinElmer) and assay buffer (50 mM HEPES pH 7.4, 1 mM DTT and 0.02% (v/v) Tween-20) and purified AMPK. Phosphotransferase activity was conducted at 30°C for 10 min and reactions were quenched by spotting 15 µl onto phosphocellulose ion-exchange chromatography paper (made in-house), followed by repeated washes in 1% H3PO4 (Merck Millipore). Ultima Gold liquid scintillation fluid (5 ml; PerkinElmer) was added to vials containing dried phosphocellulose papers, and the level of ^32P-transfer to the SAMS peptide was determined using a Tri-Carb 2900TR liquid scintillation counter (PerkinElmer).

human GST-AMPK α2β2γ1 = molecular target: T2, human GST-AMPK α2β2γ1 (Homo sapiens, UniProt O43741+P54646); test: as above; assay type: biochemical; settings: 1 µM compound
T2 construct: triply transfected with full-length AMPK α1 or α2 (NH2-terminal GST fusion, pDEST27 vector); full-length AMPK α1 or α2 (NH2-terminal GST fusion, pDEST27 vector), β1 or β2 (COOH-terminal FLAG fusion, pcDNA3.1 vector); FLAG (C); made in house; host or cells: HEK293T/17 cells, transient triple transfection
T2 sequence (P54646 whole entry, the tested form may be a part): as the sequence (P54646 whole entry, the tested form may be a part) above
T2 sequence (O43741 whole entry, the tested form may be a part): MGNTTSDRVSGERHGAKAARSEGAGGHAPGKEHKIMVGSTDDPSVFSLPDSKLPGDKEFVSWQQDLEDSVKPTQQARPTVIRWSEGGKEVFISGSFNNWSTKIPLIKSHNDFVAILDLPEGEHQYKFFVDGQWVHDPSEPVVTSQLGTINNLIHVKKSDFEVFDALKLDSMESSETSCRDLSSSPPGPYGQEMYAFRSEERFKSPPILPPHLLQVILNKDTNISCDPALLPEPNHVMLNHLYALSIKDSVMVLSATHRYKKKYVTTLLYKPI
T2 sequence (P54619 whole entry partner, the tested form may be a part): as the sequence (P54619 whole entry partner, the tested form may be a part) above
Text: as §1, §2, §3

COS7 cells = test: Immunoblot of AMPK signalling in COS7 cells; assay type: cell-based; settings: COS7, 2.5 µM, 1 h
Description: To evaluate the efficacy of MSG011 in cellulo, we incubated mouse primary hepatocytes with 2.5 µM MSG011 for 60 min and tracked changes in phosphorylation of AMPK α-Thr172 (marker of activation) and the AMPK substrate acetyl-CoA carboxylase (ACC) Ser79 (AMPK signalling marker).
HEK293T/17, HEK293T, COS7, HeLa and PC3 cells (ATCC) were maintained in Dulbecco's Modified Eagle's medium (DMEM; Sigma–Aldrich) supplemented with 10% fetal bovine serum (FBS; Assay Matrix) at 37°C and 5% CO2. Primary hepatocytes from wild type mice were prepared using the collagenase perfusion method and cultured as described previously. Cultures were incubated with fresh DMEM (no FBS) for 2 h prior to 1 h treatment with MSG011 (dissolved in DMSO) or phenformin (dissolved in H2O). Adherent HEK293T/17 cells at ∼50% confluency were triply transfected with AMPK α1 (pcDNA3.1 vector), β1 (COOH-terminal MYC fusion, pcDNA3.1 vector) and WT γ1 or γ1-R299G mutant (NH2-terminal HA fusion, pMT2 vector) in the presence of FuGENE HD transfection reagent (Promega) as per the manufacturers protocol. […]
All samples were separated on 12% SDS–PAGE gels and transferred to an Immobilon-FL PVDF membrane (Merck Millipore). […] Immunoblots were visualised on the Odyssey Infrared Imaging System (LI-COR Biosciences) and immunoreactive bands analysed and quantified using Image Studio Software (LI-COR Biosciences).

- fold AMPK activation relative to vehicle (human GST-AMPK α2β1γ1): > 2.2 fold
- fold AMPK activation relative to vehicle (human GST-AMPK α2β2γ1): > 2.2 fold
SMILES: CC(=O)NC1CC=C(c2ccc(-c3nc4nc(Oc5ccc(C)c(C(=O)O)c5)[nH]c4cc3Cl)cc2)CC1 (stereo not drawn) [MSG011, 5-((5-(4′-Acetamido-2′,3′,4′,5′-tetrahydro-[1,1′-biphenyl]-4-yl)-6-chloro-1H-imidazo[4,5-b]pyridin-2-yl)oxy)-2-methylbenzoic acid]
- AMPK signalling (phosphorylation of ACC-Ser79 and raptor-Ser792) (COS7 cells): at levels comparable to extreme energy stress

Reference: PMC9317966, “Structure-function analysis of the AMPK activator SC4 and identification of a potent pan AMPK activator” (Biochemical Journal, 2022)
